Results on 28 targets are retold here after the supplement of paper PMC12463676, “Small-molecule dissolution of stress granules by redox modulation benefits ALS models” (Nature Chemical Biology, 2025).

Compound in one assay: O=[As]([O-])(O)O.[K+] [potassium arsenate]
The assay is described as follows: thermal stability z-score vs DMSO; higher = more thermally stabilized by treatment. As to conditions: HeLa; arsenate concentration 1 mM. As to the method: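 Cellular thermal proteome profiling in HeLa cells treated with 1 mM arsenate for 1 h (DMSO pretreatment), heated to ten temperatures (37-66.3 °C). Soluble protein was quantified by TMT mass spectrometry relative to DMSO controls; the thermal stability score was transformed to a z-score; mean of n = 3 experiments.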

Compound in the next assay: NC(=O)CCCCC1CCSS1 [lipoamide]
The description is as above. The conditions noted are these: HeLa, lipoamide concentration 100 µM. As for the experimental part: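 Cellular thermal proteome profiling in HeLa cells. Cells were treated with 100 µM lipoamide for 1 h, with or without 1 mM arsenate for a further 1 h, then heated to ten temperatures (37-66.3 °C), and soluble protein was quantified by TMT mass spectrometry relative to 0.1% DMSO controls. The thermal stability score (sum of log2 fold changes minus the abundance score) was transformed to a z-score; mean of n = 3 experiments.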

[1] abbreviates: arsenate co-treatment: 1 mM arsenate 1 h.
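Further: each temperature applied for 3 min, abundance score taken as mean log2 fold change at the two lowest temperatures, z-score obtained by mean subtraction and division by SD.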

Sequence of UniProt Q9HCD6 (Q9HCD6 whole entry): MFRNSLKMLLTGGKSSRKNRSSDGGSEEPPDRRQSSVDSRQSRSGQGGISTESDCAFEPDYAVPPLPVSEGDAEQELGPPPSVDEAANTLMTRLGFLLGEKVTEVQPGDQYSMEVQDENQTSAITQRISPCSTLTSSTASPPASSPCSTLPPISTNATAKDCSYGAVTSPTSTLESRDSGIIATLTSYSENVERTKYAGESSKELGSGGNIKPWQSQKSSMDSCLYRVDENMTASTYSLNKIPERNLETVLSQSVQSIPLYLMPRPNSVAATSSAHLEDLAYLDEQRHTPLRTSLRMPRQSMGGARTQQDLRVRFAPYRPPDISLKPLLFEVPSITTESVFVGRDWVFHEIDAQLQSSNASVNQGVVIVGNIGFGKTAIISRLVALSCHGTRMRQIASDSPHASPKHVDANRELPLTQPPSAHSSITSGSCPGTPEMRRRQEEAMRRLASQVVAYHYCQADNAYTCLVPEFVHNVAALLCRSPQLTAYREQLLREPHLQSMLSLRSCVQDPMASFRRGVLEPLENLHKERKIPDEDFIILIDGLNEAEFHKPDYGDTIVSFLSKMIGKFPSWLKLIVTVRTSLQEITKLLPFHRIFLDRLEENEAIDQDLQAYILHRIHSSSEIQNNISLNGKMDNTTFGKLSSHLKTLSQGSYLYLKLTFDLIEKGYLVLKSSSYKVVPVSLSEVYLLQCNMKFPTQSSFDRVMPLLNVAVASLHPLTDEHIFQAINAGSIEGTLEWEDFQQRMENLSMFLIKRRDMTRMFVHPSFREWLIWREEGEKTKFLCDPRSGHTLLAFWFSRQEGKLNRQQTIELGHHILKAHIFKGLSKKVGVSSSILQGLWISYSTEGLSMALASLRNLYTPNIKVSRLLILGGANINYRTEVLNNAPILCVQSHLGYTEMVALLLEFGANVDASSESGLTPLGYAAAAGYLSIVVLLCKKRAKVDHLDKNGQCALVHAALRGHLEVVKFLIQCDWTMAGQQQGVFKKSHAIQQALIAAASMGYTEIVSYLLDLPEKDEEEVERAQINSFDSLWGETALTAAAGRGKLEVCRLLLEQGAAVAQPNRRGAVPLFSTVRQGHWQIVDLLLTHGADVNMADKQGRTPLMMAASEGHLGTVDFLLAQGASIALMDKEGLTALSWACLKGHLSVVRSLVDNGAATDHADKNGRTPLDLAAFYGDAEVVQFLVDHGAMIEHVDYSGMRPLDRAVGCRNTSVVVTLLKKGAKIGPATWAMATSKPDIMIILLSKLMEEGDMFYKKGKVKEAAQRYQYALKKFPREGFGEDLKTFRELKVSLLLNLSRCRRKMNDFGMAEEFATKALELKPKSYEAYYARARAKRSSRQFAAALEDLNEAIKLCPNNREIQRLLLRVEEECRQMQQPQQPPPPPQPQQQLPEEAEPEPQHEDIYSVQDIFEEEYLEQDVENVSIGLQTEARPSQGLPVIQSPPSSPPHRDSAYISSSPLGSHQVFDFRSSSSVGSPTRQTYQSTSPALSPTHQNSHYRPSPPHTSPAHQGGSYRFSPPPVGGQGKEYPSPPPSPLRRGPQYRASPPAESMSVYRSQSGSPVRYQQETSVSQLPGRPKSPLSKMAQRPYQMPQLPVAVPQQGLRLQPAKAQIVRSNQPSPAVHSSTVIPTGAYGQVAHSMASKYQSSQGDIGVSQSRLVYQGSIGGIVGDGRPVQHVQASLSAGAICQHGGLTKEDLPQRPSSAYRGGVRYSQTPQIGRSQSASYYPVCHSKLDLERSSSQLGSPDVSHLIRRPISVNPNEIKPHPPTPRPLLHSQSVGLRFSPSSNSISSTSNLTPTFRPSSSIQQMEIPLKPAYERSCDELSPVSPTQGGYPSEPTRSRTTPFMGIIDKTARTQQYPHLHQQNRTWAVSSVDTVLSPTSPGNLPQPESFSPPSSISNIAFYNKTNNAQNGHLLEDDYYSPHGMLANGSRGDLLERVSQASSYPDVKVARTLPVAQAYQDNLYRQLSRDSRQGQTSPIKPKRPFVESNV
Sequence of UniProt O60493 (O60493 whole entry): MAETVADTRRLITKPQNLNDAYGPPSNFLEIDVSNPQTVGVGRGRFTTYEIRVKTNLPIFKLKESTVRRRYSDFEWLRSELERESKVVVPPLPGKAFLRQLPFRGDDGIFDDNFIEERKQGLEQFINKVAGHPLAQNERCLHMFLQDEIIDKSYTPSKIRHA
Sequence of UniProt Q1ED39 (Q1ED39 whole entry): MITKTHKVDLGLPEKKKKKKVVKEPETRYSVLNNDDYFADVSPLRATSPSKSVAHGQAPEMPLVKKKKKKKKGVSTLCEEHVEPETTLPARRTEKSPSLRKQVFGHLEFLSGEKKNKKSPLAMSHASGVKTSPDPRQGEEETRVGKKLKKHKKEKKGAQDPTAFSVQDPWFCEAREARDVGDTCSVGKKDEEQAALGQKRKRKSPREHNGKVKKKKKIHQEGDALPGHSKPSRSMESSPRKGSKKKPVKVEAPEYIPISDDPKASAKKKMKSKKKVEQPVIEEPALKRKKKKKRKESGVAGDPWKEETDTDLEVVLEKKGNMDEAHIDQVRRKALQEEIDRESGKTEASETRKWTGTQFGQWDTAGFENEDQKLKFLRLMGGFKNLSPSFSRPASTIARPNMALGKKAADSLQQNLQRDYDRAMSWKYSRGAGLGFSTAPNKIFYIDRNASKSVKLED
Sequence of UniProt Q96FZ2 (Q96FZ2 whole entry): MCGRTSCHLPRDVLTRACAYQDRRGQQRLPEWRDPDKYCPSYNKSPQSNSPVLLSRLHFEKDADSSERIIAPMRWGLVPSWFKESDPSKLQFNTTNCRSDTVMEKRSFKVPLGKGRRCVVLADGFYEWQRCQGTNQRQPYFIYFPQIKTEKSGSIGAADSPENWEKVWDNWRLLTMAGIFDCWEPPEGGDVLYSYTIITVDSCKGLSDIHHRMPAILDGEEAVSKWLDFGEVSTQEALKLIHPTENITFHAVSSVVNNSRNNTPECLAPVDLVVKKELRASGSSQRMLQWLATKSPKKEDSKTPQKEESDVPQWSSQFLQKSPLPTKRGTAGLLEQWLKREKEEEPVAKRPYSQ
Sequence of UniProt Q8IZH2 (Q8IZH2 whole entry): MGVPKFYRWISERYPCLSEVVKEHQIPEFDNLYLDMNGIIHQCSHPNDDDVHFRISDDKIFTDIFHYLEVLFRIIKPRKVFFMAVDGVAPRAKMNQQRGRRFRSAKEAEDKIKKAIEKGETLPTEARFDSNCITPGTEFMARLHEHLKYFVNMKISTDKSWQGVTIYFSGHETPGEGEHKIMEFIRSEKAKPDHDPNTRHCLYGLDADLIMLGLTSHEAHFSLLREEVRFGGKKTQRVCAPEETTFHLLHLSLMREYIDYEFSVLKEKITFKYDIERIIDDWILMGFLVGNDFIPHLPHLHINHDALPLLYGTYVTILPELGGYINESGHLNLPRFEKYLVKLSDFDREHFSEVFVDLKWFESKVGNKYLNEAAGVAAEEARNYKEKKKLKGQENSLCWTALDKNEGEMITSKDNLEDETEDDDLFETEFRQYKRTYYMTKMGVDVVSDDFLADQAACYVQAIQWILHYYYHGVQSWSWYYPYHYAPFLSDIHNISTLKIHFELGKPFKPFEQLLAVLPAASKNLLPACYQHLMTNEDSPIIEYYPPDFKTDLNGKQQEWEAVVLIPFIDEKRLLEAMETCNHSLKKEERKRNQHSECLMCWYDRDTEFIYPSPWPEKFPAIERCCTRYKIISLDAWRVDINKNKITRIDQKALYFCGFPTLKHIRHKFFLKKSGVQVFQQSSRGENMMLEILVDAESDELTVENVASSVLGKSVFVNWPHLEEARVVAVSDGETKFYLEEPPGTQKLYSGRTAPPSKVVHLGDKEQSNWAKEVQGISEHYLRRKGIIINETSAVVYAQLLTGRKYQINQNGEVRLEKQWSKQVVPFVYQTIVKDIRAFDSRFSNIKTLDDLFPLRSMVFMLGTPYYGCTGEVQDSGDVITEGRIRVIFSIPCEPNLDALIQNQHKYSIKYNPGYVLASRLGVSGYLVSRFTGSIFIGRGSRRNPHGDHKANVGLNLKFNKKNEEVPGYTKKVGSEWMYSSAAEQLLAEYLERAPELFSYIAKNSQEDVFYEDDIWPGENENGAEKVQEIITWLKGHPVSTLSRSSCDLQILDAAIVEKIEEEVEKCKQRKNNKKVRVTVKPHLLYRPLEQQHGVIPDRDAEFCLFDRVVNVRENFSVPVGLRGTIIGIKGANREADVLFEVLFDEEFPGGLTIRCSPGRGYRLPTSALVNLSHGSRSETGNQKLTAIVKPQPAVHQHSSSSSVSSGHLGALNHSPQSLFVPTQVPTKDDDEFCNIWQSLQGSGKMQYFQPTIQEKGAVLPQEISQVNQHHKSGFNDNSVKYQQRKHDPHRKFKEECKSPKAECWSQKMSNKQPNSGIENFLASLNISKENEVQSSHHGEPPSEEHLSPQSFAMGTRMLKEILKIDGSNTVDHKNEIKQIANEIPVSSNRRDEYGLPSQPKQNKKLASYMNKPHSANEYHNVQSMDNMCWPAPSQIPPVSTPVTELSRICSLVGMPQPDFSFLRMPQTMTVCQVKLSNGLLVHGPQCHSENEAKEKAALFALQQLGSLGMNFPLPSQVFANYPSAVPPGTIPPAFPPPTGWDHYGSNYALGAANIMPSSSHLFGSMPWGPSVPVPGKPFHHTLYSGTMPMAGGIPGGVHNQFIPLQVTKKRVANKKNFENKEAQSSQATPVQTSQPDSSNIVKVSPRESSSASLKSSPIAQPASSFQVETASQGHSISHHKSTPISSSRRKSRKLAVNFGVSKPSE
Sequence of UniProt Q5HYK3 (Q5HYK3 whole entry): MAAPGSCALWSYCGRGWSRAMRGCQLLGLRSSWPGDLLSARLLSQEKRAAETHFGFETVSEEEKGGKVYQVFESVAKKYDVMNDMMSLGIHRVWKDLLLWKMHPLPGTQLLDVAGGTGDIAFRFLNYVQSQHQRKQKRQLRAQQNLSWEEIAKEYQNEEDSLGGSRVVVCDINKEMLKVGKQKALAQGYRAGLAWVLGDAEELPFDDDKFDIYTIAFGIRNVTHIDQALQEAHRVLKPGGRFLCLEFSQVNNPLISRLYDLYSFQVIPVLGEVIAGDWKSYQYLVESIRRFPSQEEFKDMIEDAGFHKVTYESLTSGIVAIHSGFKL
Sequence of UniProt P56378 (P56378 whole entry): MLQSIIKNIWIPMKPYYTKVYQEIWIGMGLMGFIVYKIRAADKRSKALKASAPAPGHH

For the target ZDHHC17 (UniProt Q8IUH5), the thermal stability z-score with potassium arsenate came to 0.191; in the assay with lipoamide (setting [1]), 0.571; with lipoamide (arsenate co-treatment: none), 1.07.

As for DCAF10 (UniProt Q5QP82), the thermal stability z-score with potassium arsenate is 0.0678; with lipoamide (setting [1]), 0.0128; with lipoamide (arsenate co-treatment: none), 0.566.

Regarding FAM173B (UniProt Q6P4H8), the results for the thermal stability z-score with potassium arsenate, with lipoamide (setting [1]) and with lipoamide (arsenate co-treatment: none) were -0.0461, -0.478 and 1.31, respectively.

As for BPNT1 (UniProt O95861), the thermal stability z-score was -1.66 with potassium arsenate, -0.0659 with lipoamide (setting [1]) and -0.197 with lipoamide (arsenate co-treatment: none).

On to GTF3C3 (UniProt Q9Y5Q9), for which the thermal stability z-score with potassium arsenate is -0.461; in the assay with lipoamide (setting [1]), -0.0672; with lipoamide (arsenate co-treatment: none), 0.0153.

Turning to COQ5 (UniProt Q5HYK3), the thermal stability z-score worked out at 1.52 with potassium arsenate, 0.471 in the assay with lipoamide (setting [1]) and 0.639 in the assay with lipoamide (arsenate co-treatment: none).

Regarding GNAI2 (UniProt P04899), the thermal stability z-score with potassium arsenate is -0.276; with lipoamide (setting [1]), 0.83; with lipoamide (arsenate co-treatment: none), 0.313.

Turning to SNX3 (UniProt O60493), the thermal stability z-score is 0.0169 with potassium arsenate, -0.62 with lipoamide (setting [1]) and -0.231 in the assay with lipoamide (arsenate co-treatment: none).

Take P4HA2 (UniProt O15460): the results for the thermal stability z-score with potassium arsenate, in the assay with lipoamide (setting [1]) and with lipoamide (arsenate co-treatment: none) were 0.573, -3.73 and -3.49, respectively.

On to XRN1 (UniProt Q8IZH2), for which the thermal stability z-score with potassium arsenate is -0.357; in the assay with lipoamide (setting [1]), -0.0709; with lipoamide (arsenate co-treatment: none), -0.0695.

As for PDCD5 (UniProt O14737), the thermal stability z-score amounted to 0.417 with potassium arsenate, 1.01 with lipoamide (setting [1]) and 0.727 with lipoamide (arsenate co-treatment: none).

Regarding KNOP1 (UniProt Q1ED39), the thermal stability z-score in the assay with potassium arsenate was 0.831; with lipoamide (setting [1]) it was 0.735; with lipoamide (arsenate co-treatment: none), -0.755.

As to SMC6 (UniProt Q96SB8), the thermal stability z-score was 0.067 with potassium arsenate, -0.138 with lipoamide (setting [1]) and 0.113 with lipoamide (arsenate co-treatment: none).

On to MPI (UniProt P34949), for which the thermal stability z-score with potassium arsenate is 0.187; with lipoamide (setting [1]) it was -0.333; with lipoamide (arsenate co-treatment: none), -0.379.

Take RPA1 (UniProt P27694): the thermal stability z-score is 0.0213 with potassium arsenate, -0.6 in the assay with lipoamide (setting [1]) and -0.317 with lipoamide (arsenate co-treatment: none).

Regarding GFPT1 (UniProt Q06210), the thermal stability z-score is -0.331 in the assay with potassium arsenate, -0.127 in the assay with lipoamide (setting [1]) and -0.196 with lipoamide (arsenate co-treatment: none).

For MP68 (UniProt P56378), the thermal stability z-score with potassium arsenate came to 1.15; with lipoamide (setting [1]), 0.962; with lipoamide (arsenate co-treatment: none), 0.921.

For IPO5 (UniProt O00410), the results for the thermal stability z-score in the assay with potassium arsenate, with lipoamide (setting [1]) and in the assay with lipoamide (arsenate co-treatment: none) were -0.498, 0.21 and -0.103, respectively.

Take TANC2 (UniProt Q9HCD6): the figures for the thermal stability z-score with potassium arsenate, in the assay with lipoamide (setting [1]) and with lipoamide (arsenate co-treatment: none) were -0.0159, -0.0889 and -0.116, respectively.

Turning to HMCES (UniProt Q96FZ2), the thermal stability z-score with potassium arsenate was -0.565; with lipoamide (setting [1]) it was 0.164; in the assay with lipoamide (arsenate co-treatment: none), 0.254.

Take RIOK3 (UniProt O14730): the figures for the thermal stability z-score in the assay with potassium arsenate, with lipoamide (setting [1]) and with lipoamide (arsenate co-treatment: none) were 0.507, -0.0448 and -0.0085, respectively.

With NLN (UniProt Q9BYT8), the results for the thermal stability z-score in the assay with potassium arsenate, in the assay with lipoamide (setting [1]) and with lipoamide (arsenate co-treatment: none) were -0.079, -0.0488 and 0.000162, respectively.

GYS1 (UniProt P13807): the thermal stability z-score with potassium arsenate is 0.706; with lipoamide (setting [1]), 0.31; with lipoamide (arsenate co-treatment: none), 0.22.

Take RWDD1 (UniProt Q9H446): the thermal stability z-score with potassium arsenate amounted to 0.471; with lipoamide (setting [1]), 0.432; with lipoamide (arsenate co-treatment: none), 0.421.

On to PLEKHA5 (UniProt Q9HAU0), for which the values for the thermal stability z-score with potassium arsenate, in the assay with lipoamide (setting [1]) and in the assay with lipoamide (arsenate co-treatment: none) were 0.0794, 0.191 and 0.254, respectively.

As for NUP214 (UniProt P35658), the thermal stability z-score with potassium arsenate is 0.815; with lipoamide (setting [1]), -0.0103; with lipoamide (arsenate co-treatment: none), -0.132.

On to RRAS2 (UniProt P62070), for which the thermal stability z-score amounted to 0.544 with potassium arsenate, 0.129 with lipoamide (setting [1]) and 0.0499 with lipoamide (arsenate co-treatment: none).

Turning to HSP90B1 (UniProt P14625), the thermal stability z-score was 0.54 with potassium arsenate, -3.56 in the assay with lipoamide (setting [1]) and -2.61 with lipoamide (arsenate co-treatment: none).
